Patent US20200085776A1, “Methods of Reducing C-Reactive Protein and/or Treating Cardiovascular Disease” (CARDAX, INC., priority 2018, published 2020)

Tested on: C-reactive protein (CRP)
Assay: CRP (hs-CRP) in blood, CHASE clinical study
Assay type: in vivo, human
Conditions: Group Z 48 mg BID; for CRP Max / CRP Mean (SD) / CRP Median / CRP Min: V6 Week 12
Source text: This is a two-part study comprising Part I and Part II. Following screening, Part I consists of a randomized, double-blind, placebo controlled dosing period of up to 12 weeks. The study shall be conducted at one or more study sites in Hawaii. Approximately 360 subjects qualified after completion of screening procedures shall be randomized in a 1:1:1 ratio to one of three treatment groups, per Table 1.
The Part I 12-week double-blind dosing period commences with V2, including randomization and first dose of study product, and continues with study visits at Week 1-2 (V3), Week 4 (V4), Week 8 (V5), and Week 12 (V6). V6 procedures will conclude Part I.
Blood shall be obtained at each visit for CRP. The screening specimen shall be processed at the local lab and reported to the study staff for eligibility determination; CRP samples at V7 and V8 may also be processed locally and reported directly to study staff. Samples for CRP from V2 through V6 may be batched, processed, and reported as specified in the Laboratory Manual.
At each these visits, blood was obtained for measurement of CRP, among other parameters. Table 7A provides a summary of the CRP measurements (mg/L) at each visit and Table 7B provides a summary of the differences of CRP levels between V2 and V6.

[1] = subjects with DM2, hypertension and hyperlipidemia but not CAD
[2] = subjects with Diabetes Mellitus Type II
[3] = subjects with baseline level greater than 2.0
[4] = baseline to Week 12, all subjects
[5] = baseline to Week 12, subjects not taking a hypertension agent
[6] = baseline to Week 12, subjects not taking any cardiac therapeutic agent
[7] = baseline to Week 12, subjects not taking statins
[8] = baseline to Week 12, subjects taking an anti-diabetic agent
[9] = baseline to Week 12, subjects with CAD
[10] = baseline to Week 12, subjects with DM2, hypertension and hyperlipidemia but not CAD
[11] = baseline to Week 12, subjects with Diabetes Mellitus Type II
[12] = baseline to Week 12, subjects with baseline level greater than 2.0
[13] = baseline to Week 12, subjects with hyperlipidemia

CC1=C(/C=C/C(C)=C/C=C/C(C)=C/C=C/C=C(C)/C=C/C=C(C)/C=C/C2=C(C)C(=O)C(O)CC2(C)C)C(C)(C)CC(O)C1=O (stereo not drawn) [Astaxanthin, astaxanthin]
CRP Max [1]: 6.14 mg/L | CRP Mean (SD) [1]: 3.38 (1.57) mg/L | CRP Median [1]: 2.58 mg/L | CRP Min [1]: 2.48 mg/L | CRP Max [2]: 8.84 mg/L | CRP Mean (SD) [2]: 3.77 (2.70) mg/L | CRP Median [2]: 2.56 mg/L | CRP Min [2]: 0.61 mg/L | CRP Max [3]: 8.84 mg/L | CRP Mean (SD) [3]: 3.88 (2.42) mg/L | CRP Median [3]: 2.89 mg/L | CRP Min [3]: 0.61 mg/L | CRP Max (subjects with hyperlipidemia): 6.14 mg/L | CRP Mean (SD) (subjects with hyperlipidemia): 2.54 (1.29) mg/L | CRP Median (subjects with hyperlipidemia): 2.31 mg/L | CRP Min (subjects with hyperlipidemia): 0.61 mg/L | CRP V2 to V6 % Change Max [4]: 81.89% | CRP V2 to V6 % Change Mean [4]: −8.48% | CRP V2 to V6 % Change Median [4]: −27.9% | CRP V2 to V6 % Change Min [4]: −90.9% | CRP V2 to V6 Change Max [4]: 2.58 mg/L | CRP V2 to V6 Change Mean [4]: -0.87 mg/L | CRP V2 to V6 Change Median [4]: -0.65 mg/L | CRP V2 to V6 Change Min [4]: -6.07 mg/L | CRP V2 to V6 % Change Max [5]: −4.25% | CRP V2 to V6 % Change Mean (SD) [5]: −30.8 (26.09) % | CRP V2 to V6 % Change Median [5]: −31.8% | CRP V2 to V6 % Change Min [5]: −56.4% | CRP V2 to V6 Change Max [5]: -0.11 mg/L | CRP V2 to V6 Change Mean (SD) [5]: −1.58 (1.32) mg/L | CRP V2 to V6 Change Median [5]: -2.00 mg/L | CRP V2 to V6 Change Min [5]: -2.64 mg/L | CRP V2 to V6 % Change Max [6]: 71.27% | CRP V2 to V6 % Change Mean (SD) [6]: −23.7 (41.82) % | CRP V2 to V6 % Change Median [6]: −31.5% | CRP V2 to V6 % Change Min [6]: −90.9% | CRP V2 to V6 Change Max [6]: 1.29 mg/L | CRP V2 to V6 Change Mean (SD) [6]: −1.42 (2.01) mg/L | CRP V2 to V6 Change Median [6]: -1.24 mg/L | CRP V2 to V6 Change Min [6]: -6.07 mg/L | CRP V2 to V6 % Change Max [7]: 19.13% | CRP V2 to V6 % Change Mean (SD) [7]: −14.9 (28.11) % | CRP V2 to V6 % Change Median [7]: −17.6% | CRP V2 to V6 % Change Min [7]: −56.4% | CRP V2 to V6 Change Max [7]: 0.80 mg/L | CRP V2 to V6 Change Mean (SD) [7]: −0.81 (1.42) mg/L | CRP V2 to V6 Change Median [7]: -0.71 mg/L | CRP V2 to V6 Change Min [7]: -2.64 mg/L | CRP V2 to V6 % Change** Max [8]: 81.89% | CRP V2 to V6 % Change** Mean (SD) [8]: −16.9 (49.24) % | CRP V2 to V6 % Change** Median [8]: −30.7% | CRP V2 to V6 % Change** Min [8]: −90.9% | CRP V2 to V6 Change Max [8]: 2.58 mg/L | CRP V2 to V6 Change Mean (SD) [8]: −1.18 (2.36) mg/L | CRP V2 to V6 Change Median [8]: -1.14 mg/L | CRP V2 to V6 Change Min [8]: -6.07 mg/L | CRP V2 to V6 % Change Max [9]: 81.89% | CRP V2 to V6 % Change Mean (SD) [9]: −28.8 (65.35) % | CRP V2 to V6 % Change Median [9]: −39.7% | CRP V2 to V6 % Change Min [9]: −90.9% | CRP V2 to V6 Change Max [9]: 1.04 mg/L | CRP V2 to V6 Change Mean (SD) [9]: −1.91 (2.67) mg/L | CRP V2 to V6 Change Median [9]: -1.24 mg/L | CRP V2 to V6 Change Min [9]: -6.07 mg/L | CRP V2 to V6 % Change Max [10]: −4.25% | CRP V2 to V6 % Change Mean (SD) [10]: −32.6 (18.99) % | CRP V2 to V6 % Change Median [10]: −30.7% | CRP V2 to V6 % Change Min [10]: −50.4% | CRP V2 to V6 Change Max [10]: -0.11 mg/L | CRP V2 to V6 Change Mean (SD) [10]: −1.87 (1.24) mg/L | CRP V2 to V6 Change Median [10]: -2.37 mg/L | CRP V2 to V6 Change Min [10]: -3.24 mg/L | CRP V2 to V6 % Change Max [11]: 81.89% | CRP V2 to V6 % Change Mean (SD) [11]: −14.7 (47.59) % | CRP V2 to V6 % Change Median [11]: −29.3% | CRP V2 to V6 % Change Min [11]: −90.9% | CRP V2 to V6 Change Max [11]: 2.58 mg/L | CRP V2 to V6 Change Mean (SD) [11]: −1.01 (2.32) mg/L | CRP V2 to V6 Change Median [11]: -0.90 mg/L | CRP V2 to V6 Change Min [11]: -6.07 mg/L | CRP V2 to V6 % Change Max [12]: 48.77% | CRP V2 to V6 % Change Mean (SD) [12]: −24.8 (35.03) % | CRP V2 to V6 % Change Median [12]: −31.1% | CRP V2 to V6 % Change Min [12]: −90.9% | CRP V2 to V6 Change Max [12]: 2.58 mg/L | CRP V2 to V6 Change Mean (SD) [12]: −1.37 (2.11) mg/L | CRP V2 to V6 Change Median [12]: -1.54 mg/L | CRP V2 to V6 Change Min [12]: -6.07 mg/L | CRP V2 to V6 % Change Max [13]: 81.89% | CRP V2 to V6 % Change Mean (SD) [13]: −13.6 (49.58) % | CRP V2 to V6 % Change Median [13]: −30.7% | CRP V2 to V6 % Change Min [13]: −90.9% | CRP V2 to V6 Change Max [13]: 1.29 mg/L | CRP V2 to V6 Change Mean (SD) [13]: −1.24 (1.95) mg/L | CRP V2 to V6 Change Median [13]: -1.14 mg/L | CRP V2 to V6 Change Min [13]: -6.07 mg/L
